ChEMBL document CHEMBL6115000, “Discovery of a first-in-class PROTAC degrader of histone lysine demethylase KDM4” (Eur J Med Chem, 2025)
Active and inactive are the calls of the source. The rule behind the calls is not given here.

Columns and labels:
[1] = Induction of apoptosis in human KYSE-150 cells assessed as late apoptotic cells at 333.3 nM incubated for 72 hrs by Annexin V-PE/7-AAD staining based flow cytometry (reference value: 5.98 %); assay type: functional
[2] = molecular target: T1, von Hippel-Lindau disease tumor suppressor/Lysine-specific demethylase 4B (Homo sapiens, UniProt P40337+O94953); assay: PROTAC activity at VHL/KDM4B in human KYSE-150 cells assessed as induction of KDM4B degradation upto 1000 nM measured after 24 hrs by Western blot analysis relative to control; assay type: cell-based; details: KYSE-150 cell line
Target sequence in this assay (O94953 whole entry, looked up): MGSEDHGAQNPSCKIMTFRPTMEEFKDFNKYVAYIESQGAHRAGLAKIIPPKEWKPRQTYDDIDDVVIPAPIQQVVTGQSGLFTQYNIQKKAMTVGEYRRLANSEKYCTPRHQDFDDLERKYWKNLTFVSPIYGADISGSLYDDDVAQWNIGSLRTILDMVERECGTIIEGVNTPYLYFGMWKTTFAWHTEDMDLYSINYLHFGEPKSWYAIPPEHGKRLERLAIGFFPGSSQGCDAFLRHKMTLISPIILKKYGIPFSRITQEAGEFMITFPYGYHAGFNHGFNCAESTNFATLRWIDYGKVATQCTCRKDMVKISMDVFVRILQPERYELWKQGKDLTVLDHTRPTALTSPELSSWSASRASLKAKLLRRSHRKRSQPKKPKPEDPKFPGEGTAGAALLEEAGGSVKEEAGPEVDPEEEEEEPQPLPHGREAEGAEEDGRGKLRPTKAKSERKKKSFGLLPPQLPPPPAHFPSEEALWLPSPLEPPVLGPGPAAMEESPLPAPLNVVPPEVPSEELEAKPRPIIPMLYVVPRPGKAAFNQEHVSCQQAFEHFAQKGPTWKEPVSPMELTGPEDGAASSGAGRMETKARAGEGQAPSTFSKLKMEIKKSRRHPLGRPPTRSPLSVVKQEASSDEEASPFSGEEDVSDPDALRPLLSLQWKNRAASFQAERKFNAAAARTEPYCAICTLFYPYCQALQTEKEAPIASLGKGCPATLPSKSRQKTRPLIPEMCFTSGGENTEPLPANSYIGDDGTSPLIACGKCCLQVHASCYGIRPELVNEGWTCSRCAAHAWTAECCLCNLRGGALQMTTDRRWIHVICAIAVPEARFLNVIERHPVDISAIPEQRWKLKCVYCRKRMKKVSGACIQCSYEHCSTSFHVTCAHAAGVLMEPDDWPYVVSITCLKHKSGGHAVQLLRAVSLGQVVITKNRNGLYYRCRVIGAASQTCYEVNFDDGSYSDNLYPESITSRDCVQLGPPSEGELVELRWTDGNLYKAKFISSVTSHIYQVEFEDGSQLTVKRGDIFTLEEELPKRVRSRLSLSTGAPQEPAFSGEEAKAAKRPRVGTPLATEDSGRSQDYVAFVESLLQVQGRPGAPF
Target sequence in this assay (P40337 whole entry, looked up): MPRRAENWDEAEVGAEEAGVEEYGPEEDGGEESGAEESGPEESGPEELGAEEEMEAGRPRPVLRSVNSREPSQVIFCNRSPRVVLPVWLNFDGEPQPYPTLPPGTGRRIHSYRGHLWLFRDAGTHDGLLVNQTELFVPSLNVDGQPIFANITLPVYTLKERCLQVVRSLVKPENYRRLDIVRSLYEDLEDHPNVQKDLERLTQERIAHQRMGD

[3] = Induction of cell cycle arrest in human KYSE-150 cells assessed as accumulation of cells at G2/M phase at 111.1 nM incubated for 24 hrs by flow cytometry (reference value: 21.64 %); assay type: functional
[4] = Induction of apoptosis in human KYSE-150 cells assessed as necrotic cells at 12.3 nM incubated for 72 hrs by Annexin V-PE/7-AAD staining based flow cytometry (reference value: 4.28 %); assay type: functional
[5] = molecular target: T2, von Hippel-Lindau disease tumor suppressor/Lysine-specific demethylase 4C (Homo sapiens, UniProt Q9H3R0+P40337); assay: PROTAC activity at VHL/KDM4C in human KYSE-150 cells assessed as induction of KDM4C degradation upto 1000 nM measured after 24 hrs by Western blot analysis relative to control; assay type: cell-based; details: KYSE-150 cell line
Target sequence in this assay (P40337 whole entry, looked up): as above
Target sequence in this assay (Q9H3R0 whole entry, looked up): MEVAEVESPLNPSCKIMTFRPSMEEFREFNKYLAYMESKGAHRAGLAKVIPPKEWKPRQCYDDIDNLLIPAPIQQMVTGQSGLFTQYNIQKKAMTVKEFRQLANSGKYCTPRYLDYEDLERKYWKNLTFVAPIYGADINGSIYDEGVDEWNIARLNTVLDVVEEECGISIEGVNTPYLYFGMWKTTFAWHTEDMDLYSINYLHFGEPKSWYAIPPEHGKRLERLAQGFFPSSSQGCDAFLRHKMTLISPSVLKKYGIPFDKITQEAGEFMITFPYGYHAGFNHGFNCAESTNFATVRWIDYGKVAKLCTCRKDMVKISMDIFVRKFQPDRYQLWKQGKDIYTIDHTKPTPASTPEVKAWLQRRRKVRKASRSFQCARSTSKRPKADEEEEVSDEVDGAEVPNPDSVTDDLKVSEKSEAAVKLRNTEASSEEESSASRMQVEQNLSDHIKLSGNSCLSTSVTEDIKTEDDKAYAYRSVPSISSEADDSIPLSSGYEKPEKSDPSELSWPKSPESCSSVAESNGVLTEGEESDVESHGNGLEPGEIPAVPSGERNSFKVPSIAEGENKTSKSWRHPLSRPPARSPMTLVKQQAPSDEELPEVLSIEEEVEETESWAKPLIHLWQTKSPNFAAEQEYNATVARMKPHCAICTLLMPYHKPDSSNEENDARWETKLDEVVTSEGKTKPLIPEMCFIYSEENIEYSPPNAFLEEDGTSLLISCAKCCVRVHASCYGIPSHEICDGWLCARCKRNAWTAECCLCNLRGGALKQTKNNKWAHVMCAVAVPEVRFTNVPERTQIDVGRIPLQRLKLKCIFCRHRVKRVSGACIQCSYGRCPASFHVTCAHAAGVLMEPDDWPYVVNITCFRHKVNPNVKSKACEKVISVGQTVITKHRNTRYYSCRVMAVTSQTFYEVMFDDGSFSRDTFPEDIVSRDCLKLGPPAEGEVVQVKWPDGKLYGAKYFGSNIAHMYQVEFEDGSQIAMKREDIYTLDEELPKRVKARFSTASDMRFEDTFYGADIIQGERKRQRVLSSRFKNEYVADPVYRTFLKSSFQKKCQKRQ

[6] = Induction of cell cycle arrest in human KYSE-150 cells assessed as accumulation of cells at S pahse at 333.3 nM incubated for 24 hrs by flow cytometry (reference value: 13.15 %); assay type: functional
[7] = Induction of cell cycle arrest in human KYSE-150 cells assessed as accumulation of cells at G0/G1 phase at 37 nM incubated for 24 hrs by flow cytometry (reference value: 65.08 %); assay type: functional
[8] = molecular target: T3, von Hippel-Lindau disease tumor suppressor/Lysine-specific demethylase 4A (Homo sapiens, UniProt O75164+P40337); assay: PROTAC activity at VHL/KDM4A in human KYSE-150 cells assessed as induction of KDM4A degradation at 1 uM incubated for 12 hrs by Western blot analysis relative to control; assay type: cell-based; details: KYSE-150 cell line
Target sequence in this assay (O75164 2-1064 limits assumed): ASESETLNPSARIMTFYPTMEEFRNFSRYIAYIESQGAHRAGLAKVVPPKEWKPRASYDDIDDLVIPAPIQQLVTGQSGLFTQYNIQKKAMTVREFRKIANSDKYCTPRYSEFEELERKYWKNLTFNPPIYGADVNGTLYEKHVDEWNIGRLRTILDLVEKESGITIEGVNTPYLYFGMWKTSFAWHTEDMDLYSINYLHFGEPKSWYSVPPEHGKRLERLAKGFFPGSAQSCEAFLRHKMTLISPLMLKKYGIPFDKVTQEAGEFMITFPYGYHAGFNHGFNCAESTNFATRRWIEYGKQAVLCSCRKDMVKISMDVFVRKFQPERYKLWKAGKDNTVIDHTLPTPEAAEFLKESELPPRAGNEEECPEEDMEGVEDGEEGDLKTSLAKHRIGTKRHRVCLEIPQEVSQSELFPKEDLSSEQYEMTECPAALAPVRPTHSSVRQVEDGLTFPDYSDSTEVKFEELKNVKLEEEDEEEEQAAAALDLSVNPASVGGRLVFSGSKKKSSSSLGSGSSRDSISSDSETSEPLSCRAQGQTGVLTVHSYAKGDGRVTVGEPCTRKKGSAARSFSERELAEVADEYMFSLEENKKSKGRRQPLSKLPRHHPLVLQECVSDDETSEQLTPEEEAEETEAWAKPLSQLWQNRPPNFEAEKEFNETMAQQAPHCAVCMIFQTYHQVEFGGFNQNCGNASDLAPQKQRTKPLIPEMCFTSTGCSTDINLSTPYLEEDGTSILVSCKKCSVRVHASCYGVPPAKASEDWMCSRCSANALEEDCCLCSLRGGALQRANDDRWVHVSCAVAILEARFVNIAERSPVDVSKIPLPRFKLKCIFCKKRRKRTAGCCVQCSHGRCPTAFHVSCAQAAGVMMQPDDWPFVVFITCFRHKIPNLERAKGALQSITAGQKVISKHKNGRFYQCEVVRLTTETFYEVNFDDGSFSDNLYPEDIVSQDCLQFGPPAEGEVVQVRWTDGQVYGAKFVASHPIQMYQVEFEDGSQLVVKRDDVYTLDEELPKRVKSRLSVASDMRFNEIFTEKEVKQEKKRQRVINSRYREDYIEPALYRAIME
Target sequence in this assay (P40337 whole entry partner): as the sequence (P40337 whole entry, looked up) above

[9] = molecular target: T3, von Hippel-Lindau disease tumor suppressor/Lysine-specific demethylase 4A; assay: PROTAC activity at VHL/KDM4A in human KYSE-150 cells assessed as fold increase in H3K36me3 level at 1000 nM incubated for 24 hrs by Western blot analysis relative to control; assay type: cell-based; details: KYSE-150 cell line
Target sequence in this assay (O75164 2-1064 limits assumed): as the sequence (O75164 2-1064 limits assumed) above
Target sequence in this assay (P40337 whole entry partner): as the sequence (P40337 whole entry, looked up) above

[10] = Induction of apoptosis in human KYSE-150 cells assessed as early apoptotic cells at 1000 nM incubated for 72 hrs by Annexin V-PE/7-AAD staining based flow cytometry (reference value: 5.27 %); assay type: functional
[11] = molecular target: T2, von Hippel-Lindau disease tumor suppressor/Lysine-specific demethylase 4C; assay: PROTAC activity at VHL/KDM4C in human KYSE-150 cells assessed as induction of KDM4C degradation measured after 24 hrs by Western blot analysis; assay type: cell-based
[12] = Induction of apoptosis in human KYSE-150 cells assessed as early apoptotic cells at 111.1 nM incubated for 72 hrs by Annexin V-PE/7-AAD staining based flow cytometry (reference value: 5.27 %); assay type: functional
[13] = molecular target: T3, von Hippel-Lindau disease tumor suppressor/Lysine-specific demethylase 4A; assay: PROTAC activity at VHL/KDM4A in human KYSE-150 cells assessed as induction of KDM4A degradation at 50 nM incubated for 24 hrs in presence of Ac-VHL-Me by Western blot analysis; assay type: cell-based; details: KYSE-150 cell line
Target sequence in this assay (O75164 2-1064 limits assumed): as the sequence (O75164 2-1064 limits assumed) above
Target sequence in this assay (P40337 whole entry partner): as the sequence (P40337 whole entry, looked up) above

[14] = Induction of apoptosis in human KYSE-150 cells assessed as late apoptotic cells at 111.1 nM incubated for 72 hrs by Annexin V-PE/7-AAD staining based flow cytometry (reference value: 5.98 %); assay type: functional
[15] = molecular target: T3, von Hippel-Lindau disease tumor suppressor/Lysine-specific demethylase 4A; assay: PROTAC activity at VHL/KDM4A in human KYSE-150 cells assessed as induction of KDM4A degradation measured after 24 hrs by Western blot analysis; assay type: cell-based
[16] = Induction of apoptosis in human KYSE-150 cells assessed as necrotic cells at 1000 nM incubated for 72 hrs by Annexin V-PE/7-AAD staining based flow cytometry (reference value: 4.28 %); assay type: functional
[17] = molecular target: T1, von Hippel-Lindau disease tumor suppressor/Lysine-specific demethylase 4B; assay: PROTAC activity at VHL/KDM4B in human KYSE-150 cells assessed as induction of KDM4B degradation upto 1000 nM by Western blot analysis; assay type: cell-based; details: KYSE-150 cell line
Target sequence in this assay (O94953 whole entry, looked up): as the sequence (O94953 whole entry, looked up) above
Target sequence in this assay (P40337 whole entry, looked up): as the sequence (P40337 whole entry, looked up) above

[18] = Induction of apoptosis in human KYSE-150 cells assessed as necrotic cells at 111.1 nM incubated for 72 hrs by Annexin V-PE/7-AAD staining based flow cytometry (reference value: 4.28 %); assay type: functional
[19] = Induction of cell cycle arrest in human KYSE-150 cells assessed as accumulation of cells at G2/M phase at 1000 nM incubated for 24 hrs by flow cytometry (reference value: 21.64 %); assay type: functional
[20] = Induction of apoptosis in human KYSE-150 cells assessed as necrotic cells at 37 nM incubated for 72 hrs by Annexin V-PE/7-AAD staining based flow cytometry (reference value: 4.28 %); assay type: functional
[21] = Induction of apoptosis in human KYSE-150 cells assessed as viable cells at 333.3 nM incubated for 72 hrs by Annexin V-PE/7-AAD staining based flow cytometry (reference value: 84.47 %); assay type: functional; details: read-out: Activity
[22] = molecular target: T2, von Hippel-Lindau disease tumor suppressor/Lysine-specific demethylase 4C; assay: PROTAC activity at VHL/KDM4C in human KYSE-150 cells assessed as induction of KDM4C degradation upto 1000 nM by Western blot analysis; assay type: cell-based; details: KYSE-150 cell line
Target sequence in this assay (P40337 whole entry, looked up): as above
Target sequence in this assay (Q9H3R0 whole entry, looked up): as the sequence (Q9H3R0 whole entry, looked up) above

[23] = Induction of cell cycle arrest in human KYSE-150 cells assessed as accumulation of cells at G0/G1 phase at 1000 nM incubated for 24 hrs by flow cytometry (reference value: 65.08 %); assay type: functional
[24] = Induction of apoptosis in human KYSE-150 cells assessed as early apoptotic cells at 12.3 nM incubated for 72 hrs by Annexin V-PE/7-AAD staining based flow cytometry (reference value: 5.27 %); assay type: functional
[25] = Induction of apoptosis in human KYSE-150 cells assessed as viable cells at 1000 nM incubated for 72 hrs by Annexin V-PE/7-AAD staining based flow cytometry (reference value: 84.47 %); assay type: functional; details: read-out: Activity
[26] = Induction of apoptosis in human KYSE-150 cells assessed as early apoptotic cells at 37 nM incubated for 72 hrs by Annexin V-PE/7-AAD staining based flow cytometry (reference value: 5.27 %); assay type: functional
[27] = Induction of cell cycle arrest in human KYSE-150 cells assessed as accumulation of cells at G0/G1 phase at 12.3 nM incubated for 24 hrs by flow cytometry (reference value: 65.08 %); assay type: functional
[28] = Induction of apoptosis in human KYSE-150 cells assessed as late apoptotic cells at 37 nM incubated for 72 hrs by Annexin V-PE/7-AAD staining based flow cytometry (reference value: 5.98 %); assay type: functional
[29] = Induction of cell cycle arrest in human KYSE-150 cells assessed as accumulation of cells at S pahse at 111.1 nM incubated for 24 hrs by flow cytometry (reference value: 13.15 %); assay type: functional
[30] = molecular target: T1, von Hippel-Lindau disease tumor suppressor/Lysine-specific demethylase 4B; assay: PROTAC activity at VHL/KDM4B in human KYSE-150 cells assessed as induction of KDM4B degradation measured after 24 hrs by Western blot analysis; assay type: cell-based

Emax [2]: 73.1% | Emax [5]: 77.8% | Activity [8]: 57.2% | FC [9]: 2 | Activity ([11]; KYSE-150 cell line): Dose-dependent-effect | DC50 ([11]; kyse-150 cell line): 0.0494 µM | Activity [13]: inactive | Activity ([15]; KYSE-150 cell line): Dose-dependent-effect | DC50 ([15]; kyse-150 cell line): 0.0375 µM | Activity [17]: Time-dependent-effect | Activity [22]: Time-dependent-effect | Activity ([30]; KYSE-150 cell line): Dose-dependent-effect | DC50 ([30]; kyse-150 cell line): 0.0399 µM
Structure (SMILES): Cc1ncsc1-c1ccc([C@H](C)NC(=O)[C@@H]2C[C@@H](O)CN2C(=O)[C@@H](NC(=O)CCCCCCCCCOc2ccc(N(C)c3ccc4c(c3)OCC[C@H]4CNc3cnccc3C(=O)O)cc2)C(C)(C)C)cc1
Activity [1]: 48.79% | Activity [3]: 12.48% | Activity [4]: 6.02% | Activity [6]: 14.06% | Activity [7]: 71.68% | Activity [10]: 29.18% | Activity [12]: 22.13% | Activity [14]: 54.12% | Activity [16]: 5.01% | Activity [18]: 5.52% | Activity [19]: 12.05% | Activity [20]: 7.7% | viability at 0.3333 µM [21]: 19.5% | Activity [23]: 74.74% | Activity [24]: 10.63% | viability at 1 µM [25]: 17.9% | Activity [26]: 18.22% | Activity [27]: 69.11% | Activity [28]: 43.51% | Activity [29]: 14.35%
